The values below are quoted from earlier work in patent US20060135507A1, “Therapeutic agent for overactive bladder involved in aging” (priority 2004, published 2006).

The subject of data set [1] is rat with overactive bladder caused by cerebrovascular disease.
Data set [2] concerns human with overactive bladder caused by cerebrovascular disease.

Consider `COc1ccc(C(=O)N2CCCC2=O)cc1` [Aniracetam], for which the micturition reflex result in data set [1] and in data set [2] was “suppression of micturition reflex is observed” each time.
